Experimental data reported in publication PMC6364417, “Kinase inhibitor library screening identifies synergistic drug combinations effective in sensitive and resistant melanoma cells” (Journal of Experimental & Clinical Cancer Research : CR, 2019).

Legend:
Experiment in all cases: Kinase inhibitor library screening, PrestoBlue cell viability, 1 or 10 μM, 72 h
[1] = test system: 501Mel cells (parental); conditions: 501Mel Parental, 72 h
Method in brief: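 Readout: PrestoBlue signal on a monochromator plate reader, given as percent viability relative to untreated controls. Parental and drug-resistant (Vemurafenib XP, Dabrafenib GP) sublines were tested; at least duplicates per line.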

[2] = test system: 501Mel-GP cells (Dabrafenib-resistant); conditions: 501Mel GP, 72 h
[3] = test system: 501Mel-XP cells (Vemurafenib-resistant); conditions: 501Mel XP, 72 h
[4] = test system: A375 cells (parental); conditions: A375 Parental, 72 h
[5] = test system: A375-GP cells (Dabrafenib-resistant); conditions: A375 GP, 72 h
[6] = test system: A375-XP cells (Vemurafenib-resistant); conditions: A375 XP, 72 h
[7] = test system: IGR37 cells (parental); conditions: IGR37 Parental, 72 h
[8] = test system: IGR37-GP cells (Dabrafenib-resistant); conditions: IGR37 GP, 72 h
[9] = test system: IGR37-XP cells (Vemurafenib-resistant); conditions: IGR37 XP, 72 h

## CCn1c(=O)c(-c2cc[nH]n2)cc2c(C)nc(N)nc21 [XL765]
[1]; 1μΜ, in %
  Cell viability in kinase inhibitor library screening, 501Mel Parental, 1μΜ: 93.5
[1]; 10μΜ, in %
  Cell viability in kinase inhibitor library screening, 501Mel Parental, 10μΜ: 98.4
[2]; 1μΜ, in %
  Cell viability in kinase inhibitor library screening, 501Mel GP, 1μΜ: 109.6
[2]; 10μΜ, in %
  Cell viability in kinase inhibitor library screening, 501Mel GP, 10μΜ: 92.1
[3]; 1μΜ, in %
  Cell viability in kinase inhibitor library screening, 501Mel XP, 1μΜ: 96.7
[3]; 10μΜ, in %
  Cell viability in kinase inhibitor library screening, 501Mel XP, 10μΜ: 77.0
[4]; 1μΜ
  Cell viability in kinase inhibitor library screening, A375 Parental, 1μΜ: 105.9
[5]; 10μΜ
  Cell viability in kinase inhibitor library screening, A375 GP, 10μΜ: 92.4
[6]; 1μΜ
  Cell viability in kinase inhibitor library screening, A375 XP, 1μΜ: 106.1
[7]; 1μΜ, in %
  Cell viability in kinase inhibitor library screening, IGR37 Parental, 1μΜ: 100.4
[7]; 10μΜ, in %
  Cell viability in kinase inhibitor library screening, IGR37 Parental, 10μΜ: 106.2
[8]; 10μΜ
  Cell viability in kinase inhibitor library screening, IGR37 GP, 10μΜ: 96.8%
[8]; 1μΜ, in %
  Cell viability in kinase inhibitor library screening, IGR37 GP, 1μΜ: 95.1
[9]; 10μΜ
  Cell viability in kinase inhibitor library screening, IGR37 XP, 10μΜ: 68.4%

## COc1cc2c(N3CCN(C(=O)Nc4ccc(OC(C)C)cc4)CC3)ncnc2cc1OCCCN1CCCCC1 [Tandutinib (MLN518)]
[1]; 10μΜ, in %
  cell viability, 501Mel Parental, 10μΜ: 95.2
[2]; 1μΜ, in %
  cell viability, 501Mel GP, 1μΜ: 103.5
[2]; 10μΜ, in %
  cell viability, 501Mel GP, 10μΜ: 85.5
[3]; 1μΜ, in %
  cell viability, 501Mel XP, 1μΜ: 94.1
[3]; 10μΜ, in %
  cell viability, 501Mel XP, 10μΜ: 71.2
[4]; 1μΜ, in %
  cell viability, A375 Parental, 1μΜ: 106.1
[4]; 10μΜ, in %
  cell viability, A375 Parental, 10μΜ: 89.7
[5]; 10μΜ, in %
  cell viability, A375 GP, 10μΜ: 83.5
[6]; 1μΜ, in %
  cell viability, A375 XP, 1μΜ: 107.0
[7]; 1μΜ, in %
  cell viability, IGR37 Parental, 1μΜ: 100.2
[7]; 10μΜ, in %
  cell viability, IGR37 Parental, 10μΜ: 98.5
[8]; 10μΜ
  cell viability, IGR37 GP, 10μΜ: 91.4%
[8]; 1μΜ, in %
  cell viability, IGR37 GP, 1μΜ: 95.6
[9]; 10μΜ
  cell viability, IGR37 XP, 10μΜ: 43.4%
[9]; 1μΜ, in %
  cell viability, IGR37 XP, 1μΜ: 103.1

## OCCn1cc(-c2ccc3c(c2)CC/C3=N\O)c(-c2ccncc2)n1 [GDC-0879]
[1]; 1μΜ, in %
  Cell viability in kinase inhibitor library screening, 501Mel Parental, 1μΜ: 79.0
[1]; 10μΜ, in %
  Cell viability in kinase inhibitor library screening, 501Mel Parental, 10μΜ: 63.5
[2]; 1μΜ, in %
  Cell viability in kinase inhibitor library screening, 501Mel GP, 1μΜ: 108.3
[2]; 10μΜ, in %
  Cell viability in kinase inhibitor library screening, 501Mel GP, 10μΜ: 94.0
[3]; 1μΜ, in %
  Cell viability in kinase inhibitor library screening, 501Mel XP, 1μΜ: 97.9
[3]; 10μΜ, in %
  Cell viability in kinase inhibitor library screening, 501Mel XP, 10μΜ: 89.8
[4]; 10μΜ
  Cell viability in kinase inhibitor library screening, A375 Parental, 10μΜ: 28.9
[4]; 1μΜ
  Cell viability in kinase inhibitor library screening, A375 Parental, 1μΜ: 49.6
[5]; 1μΜ
  Cell viability in kinase inhibitor library screening, A375 GP, 1μΜ: 85.8
[5]; 10μΜ
  Cell viability in kinase inhibitor library screening, A375 GP, 10μΜ: 44.0
[6]; 1μΜ
  Cell viability in kinase inhibitor library screening, A375 XP, 1μΜ: 91.2
[6]; 10μΜ
  Cell viability in kinase inhibitor library screening, A375 XP, 10μΜ: 47.1
[7]; 1μΜ, in %
  Cell viability in kinase inhibitor library screening, IGR37 Parental, 1μΜ: 66.4
[7]; 10μΜ, in %
  Cell viability in kinase inhibitor library screening, IGR37 Parental, 10μΜ: 27.4
[8]; 10μΜ
  Cell viability in kinase inhibitor library screening, IGR37 GP, 10μΜ: 88.9%
[8]; 1μΜ, in %
  Cell viability in kinase inhibitor library screening, IGR37 GP, 1μΜ: 99.1
[9]; 10μΜ
  Cell viability in kinase inhibitor library screening, IGR37 XP, 10μΜ: 60.4%
[9]; 1μΜ, in %
  Cell viability in kinase inhibitor library screening, IGR37 XP, 1μΜ: 110.2

## CCc1cc2c(cc1N1CCC(N3CCOCC3)CC1)C(C)(C)c1[nH]c3cc(C#N)ccc3c1C2=O [CH5424802]
[1]; 1μΜ
  cell viability (kinase inhibitor library screening): 109.6%
[1]; 10μΜ
  cell viability (kinase inhibitor library screening): 80.1%
[2]; 1μΜ
  cell viability (kinase inhibitor library screening): 104.8%
[2]; 10μΜ
  cell viability (kinase inhibitor library screening): 72.7%
[3]; 1μΜ
  cell viability (kinase inhibitor library screening): 99.2%
[3]; 10μΜ
  cell viability (kinase inhibitor library screening): 32.3%
[4]; 10μΜ
  cell viability (kinase inhibitor library screening): 64.9%
[4]; 1μΜ
  cell viability (kinase inhibitor library screening): 106.9%
[5]; 10μΜ
  cell viability (kinase inhibitor library screening): 71.2%
[6]; 1μΜ
  cell viability (kinase inhibitor library screening): 105.6%
[6]; 10μΜ
  cell viability (kinase inhibitor library screening): 75.8%
[7]; 1μΜ
  cell viability (kinase inhibitor library screening): 103.9%
[7]; 10μΜ
  cell viability (kinase inhibitor library screening): 96.2%
[8]; 1μΜ
  cell viability (kinase inhibitor library screening): 105.2%
[8]; 10μΜ
  cell viability (kinase inhibitor library screening): 10.4%
[9]; 1μΜ
  cell viability (kinase inhibitor library screening): 106.4%
[9]; 10μΜ
  cell viability (kinase inhibitor library screening): 5.0%
